Data set [1] relates to Mycobacterium tuberculosis H37Rv strain (ATCC 27294). Nature of the data set: Antimycobacterial pre-screening at 6.25 μg/mL (BACTEC 460 radiometric system). In kind it is cell-based. As to conditions: M. tuberculosis H37Rv; for inhibition at 6.25 µg/mL: 6.25 μg/mL; for MIC90: pre-screening, read-out: Estimation of MIC90.
A further data set in a line: in vitro. As to conditions: African green monkey.
The test system of a further data set is male mice. The data set can be described thus: Acute toxicity in vivo, median lethal dose. As to conditions: intraperitoneal, approximate LD50 (Litchfield and Wilcoxon). The procedure: The synthesized compounds were evaluated for their approximate LD50 in male mice. The mice were kept under a constant temperature and humidity in sterile cages with water and food. The stock solutions of the compounds used in this study were prepared immediately before usage and injected intraperitoneally (ip). The LD50 values (Tab. 3) were calculated using the method described by Litchfield and Wilcoxon.
The median lethal dose (LD50), the dose of the selected compounds that causes 50% mortality in mice, was determined from dose–response curves with at least four doses by the method of Litchfield and Wilcoxon.

The next data set deals with M. tuberculosis H37Rv. Nature of the data set: Microplate Alamar Blue Assay (MABA), MIC determination. In kind it is cell-based, Mycobacterium tuberculosis. The note with it: two-fold dilution from 100.00 to 0.19 μg/mL.
A short description of data set [2]: Cytotoxicity in VERO cells (MTT). As to conditions: African green monkey.
Where [3] appears, read: Mycobacterium tuberculosis, H37RV, read-out: MIC90.

≈ marks a conversion by molar mass, not a printed value. Read-outs that look alike come from different tables or passages of the source. A value given as a limit tells only on which side of the number the result lay.

In data set [1], `O=C1C2=C(C(=O)c3ccccc31)C(c1ccccc1O)c1sc(=O)[nH]c1S2` (stereo not drawn) [Compound 4a, 11-(2-Hydroxyphenyl)-3, 11-dihydro-2H-benzo[6,7]thiochromeno[2,3-d][1,3]thiazole-2,5,10-trione] had an inhibition at 6.25 µg/mL of no less than 90%. For the same molecule, the values for the MIC90 (in data set [1]; in the data set on M. tuberculosis H37Rv (setting [3]); against M. tuberculosis H37Rv) were less than 6.25 µg/mL, 0.6 to 2.7 µg/mL (≈ 1.52 to 6.86 µM) and 0.68 µg/mL (≈ 1.73 µM), respectively. In “in vitro”, the half-maximal inhibitory concentration (IC50) at 72 h came to 0.44 µg/mL (≈ 1.12 µM). The molecule also returned an LD50ip in the data set on male mice of 800 mg/kg.

In the case of `CC(C)(C)c1ccc(C2C3=C(Sc4[nH]c(=O)sc42)C(=O)c2ccccc2C3=O)cc1` (stereo not drawn) [Compound 4b, 11-(4-tert-Butylphenyl)-3,11-dihydro-2H-benzo[6,7]thiochromeno[2,3-d][1,3]thiazole-2,5,10-trione], in data set [1], the inhibition at 6.25 µg/mL was found to be 61% and the MIC90 was greater than 6.25 µg/mL. The same molecule had an LD50ip with male mice of 650 mg/kg.

For `COC(=O)c1ccc(C2C3=C(Sc4[nH]c(=O)sc42)C(=O)c2ccccc2C3=O)cc1` (stereo not drawn) [Compound 4c, Methyl 4-(2,5,10-trioxo-3,5,10,11-tetrahydro-2H-benzo[6,7]thiochromeno[2,3-d][1,3]thiazol-11-yl)benzoate], in data set [1], the inhibition at 6.25 µg/mL is no less than 90% and the MIC90 is less than 6.25 µg/mL. For the same molecule, the LD50ip with male mice was found to be 180 mg/kg.

On to `COc1cc(C2C3=C(Sc4[nH]c(=O)sc42)C(=O)c2ccccc2C3=O)ccc1OC(F)F` (stereo not drawn) [Compound 4d, 11-[4-(Difluoromethoxy)-3-methoxyphenyl]-3,11-dihydro-2H-benzo[6,7]thio-chromeno[2,3-d][1,3]thiazole-2,5,10-trione], for which, in data set [1], the inhibition at 6.25 µg/mL amounted to 65% and the MIC90 is greater than 6.25 µg/mL. The same molecule came in with an LD50ip in the data set with male mice of 710 mg/kg.

Consider `O=C1C2=C(C(=O)c3ccccc31)C(c1ccc(Cl)cc1)c1sc(=O)[nH]c1S2` (stereo not drawn) [Compound 4g, 11-(4-Chlorophenyl)-3,11-dihydro-2H-benzo[6,7]thiochromeno[2,3-d][1,3]thiazole-2,5,10-trione], for which, in data set [1], the inhibition at 6.25 µg/mL is no less than 90% and the MIC90 was less than 6.25 µg/mL. For the same molecule, the IC50 at 72 h in the data set “in vitro” was 1.58 µg/mL (≈ 3.84 µM). In the data set on male mice, this molecule came in with an LD50ip greater than 1000 mg/kg.

Regarding `O=C1C2=C(C(=O)c3ccccc31)C(c1ccc(F)cc1)c1sc(=O)[nH]c1S2` (stereo not drawn) [Compound 4h, 11-(4-Fluorophenyl)-3,11-dihydro-2H-benzo[6,7]thiochromeno[2,3-d][1,3]thiazole-2,5,10-trione], in data set [1], the inhibition at 6.25 µg/mL is no less than 90% and the MIC90 was less than 6.25 µg/mL. In the data set “in vitro”, this molecule had a half-inhibitory concentration (IC50) at 72 h of 1.47 µg/mL (≈ 3.72 µM). This molecule had an LD50ip in the data set with male mice of 750 mg/kg.

`NNC(=O)c1ccncc1` [Isoniazid, isoniazid, reference compound] had an IC50 at 72 h in data set [2] greater than 6 µg/mL. In the data set on M. tuberculosis H37Rv (setting [3]), the MIC90 amounted to 0.044 µg/mL (≈ 0.321 µM).

In the case of `CO[C@H]1/C=C/O[C@@]2(C)Oc3c(C)c(O)c4c(O)c(c(/C=N/N5CCN(C)CC5)c(O)c4c3C2=O)NC(=O)/C(C)=C\C=C\[C@H](C)[C@H](O)[C@@H](C)[C@@H](O)[C@@H](C)[C@H](OC(C)=O)[C@@H]1C` [Rifampin, reference compound], the half-maximal inhibitory concentration (IC50) at 72 h in data set [2] was greater than 6 µg/mL. Further, the MIC90 in the data set with M. tuberculosis H37Rv (setting [3]) was 0.075 µg/mL (≈ 0.0911 µM).

Source of the values: article PMC3700073, “Synthesis and Biological Activity of New Thiopyrano[2,3-d]thiazoles Containing a Naphthoquinone Moiety” (Scientia Pharmaceutica, 2013).
